{"source": "patent US12667577B2", "about": "“Pharmaceutical composition, and aprepitant injection and freeze-dried powder injection” (WISDOM PHARMACEUTICAL CO., LTD, priority 2022, dated 2026)", "origin": "cited, not measured here", "key": {"[1]": {"conditions": "clinical data"}, "[2]": {"biological_target": "human substance P neurokinin-1 (NK1) receptor (Homo sapiens, UniProt P25103)", "sequence (P25103 whole entry)": "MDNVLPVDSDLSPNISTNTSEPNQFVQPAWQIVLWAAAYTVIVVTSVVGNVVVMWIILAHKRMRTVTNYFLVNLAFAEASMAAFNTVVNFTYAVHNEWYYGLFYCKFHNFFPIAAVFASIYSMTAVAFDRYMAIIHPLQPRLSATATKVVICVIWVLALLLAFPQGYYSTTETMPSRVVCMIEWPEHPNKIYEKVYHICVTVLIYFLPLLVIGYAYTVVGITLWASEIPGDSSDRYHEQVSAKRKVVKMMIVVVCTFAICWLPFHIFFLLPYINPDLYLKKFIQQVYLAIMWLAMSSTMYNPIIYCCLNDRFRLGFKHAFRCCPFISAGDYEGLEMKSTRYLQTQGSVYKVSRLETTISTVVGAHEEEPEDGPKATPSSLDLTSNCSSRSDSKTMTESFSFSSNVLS"}, "[3]": {"biological_target": "T1, 5-hydroxytryptamine receptor 3 (5-HT3) (Homo sapiens, UniProt P46098)", "T1 sequence (P46098 24-478)": "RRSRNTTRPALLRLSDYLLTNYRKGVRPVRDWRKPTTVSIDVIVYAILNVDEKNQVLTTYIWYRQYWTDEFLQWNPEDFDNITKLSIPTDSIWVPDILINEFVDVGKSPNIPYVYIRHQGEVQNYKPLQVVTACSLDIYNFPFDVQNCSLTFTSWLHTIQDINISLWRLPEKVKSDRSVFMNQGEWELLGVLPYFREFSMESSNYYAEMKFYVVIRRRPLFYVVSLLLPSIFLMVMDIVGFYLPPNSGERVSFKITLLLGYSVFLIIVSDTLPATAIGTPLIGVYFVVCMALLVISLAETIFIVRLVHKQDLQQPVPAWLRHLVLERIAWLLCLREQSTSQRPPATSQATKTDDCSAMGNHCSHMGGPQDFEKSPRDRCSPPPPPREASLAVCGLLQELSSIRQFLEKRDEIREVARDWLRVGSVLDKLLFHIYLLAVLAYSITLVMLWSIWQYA"}, "glucocorticoid receptor": {"biological_target": "T2, glucocorticoid receptor (Homo sapiens, UniProt P04150)", "T2 sequence (P04150 1-777)": "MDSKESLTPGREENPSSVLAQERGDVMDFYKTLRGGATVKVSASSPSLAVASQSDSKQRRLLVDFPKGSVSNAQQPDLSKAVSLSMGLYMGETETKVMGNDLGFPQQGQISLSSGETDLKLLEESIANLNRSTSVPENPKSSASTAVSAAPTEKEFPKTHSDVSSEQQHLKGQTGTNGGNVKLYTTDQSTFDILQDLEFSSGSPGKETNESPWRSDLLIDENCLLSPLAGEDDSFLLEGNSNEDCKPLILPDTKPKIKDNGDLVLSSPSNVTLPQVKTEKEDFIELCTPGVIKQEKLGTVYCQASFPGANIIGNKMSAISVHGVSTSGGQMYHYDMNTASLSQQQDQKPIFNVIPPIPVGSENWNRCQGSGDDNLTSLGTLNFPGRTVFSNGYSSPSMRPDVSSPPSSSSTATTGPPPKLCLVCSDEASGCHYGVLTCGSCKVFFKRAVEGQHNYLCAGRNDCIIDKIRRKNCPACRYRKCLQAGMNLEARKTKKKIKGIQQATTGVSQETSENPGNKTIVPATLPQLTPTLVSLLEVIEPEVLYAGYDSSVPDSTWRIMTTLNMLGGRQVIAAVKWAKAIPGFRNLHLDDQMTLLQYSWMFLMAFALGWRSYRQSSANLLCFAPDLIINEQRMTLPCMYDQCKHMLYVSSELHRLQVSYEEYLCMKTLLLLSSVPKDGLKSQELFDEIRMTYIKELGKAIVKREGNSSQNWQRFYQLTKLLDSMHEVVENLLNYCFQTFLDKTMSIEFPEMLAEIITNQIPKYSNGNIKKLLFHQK"}}}
{"smiles": "C[C@@H](O[C@H]1OCCN(Cc2n[nH]c(=O)[nH]2)[C@H]1c1ccc(F)cc1)c1cc(C(F)(F)F)cc(C(F)(F)F)c1", "note": "[aprepitant, Aprepitant]", "values": [{"measurement": "classification in biopharmaceutics", "setting": "low dissolution and low permeability", "value": "Class IV"}, {"measurement": "solubility in ethanol, isopropyl acetate, and acetonitrile", "setting": "room temperature", "value": "slightly soluble"}, {"measurement": "solubility in water", "setting": "room temperature", "value": 0.55, "unit": "µg/mL"}, {"measurement": "adverse effect rate at injection sites", "setting": "[1]", "value": 0.5, "unit": "%"}, {"measurement": "affinity to NK1 receptor", "setting": "[2]", "value": "high-affinity"}, {"measurement": "affinity to 5-HT3", "setting": "[3]", "value": "low or no affinity"}, {"measurement": "affinity to dopamine receptor", "setting": "dopamine receptor", "value": "low or no affinity"}, {"measurement": "affinity to glucocorticoid receptor", "setting": "glucocorticoid receptor", "value": "low or no affinity"}]}
